22 compounds from patent publication US11524966B1 (Valo Early Discovery, Inc., priority 2017, dated 2022) can be followed below.

This assay concerns the target T1, USP25 (USP25-His6, Boston Biochem E-546) (Homo sapiens, UniProt Q9UHP3).
T1 construct: His6; purchased Boston Biochem E-546
T1 sequence (Q9UHP3 1-1055): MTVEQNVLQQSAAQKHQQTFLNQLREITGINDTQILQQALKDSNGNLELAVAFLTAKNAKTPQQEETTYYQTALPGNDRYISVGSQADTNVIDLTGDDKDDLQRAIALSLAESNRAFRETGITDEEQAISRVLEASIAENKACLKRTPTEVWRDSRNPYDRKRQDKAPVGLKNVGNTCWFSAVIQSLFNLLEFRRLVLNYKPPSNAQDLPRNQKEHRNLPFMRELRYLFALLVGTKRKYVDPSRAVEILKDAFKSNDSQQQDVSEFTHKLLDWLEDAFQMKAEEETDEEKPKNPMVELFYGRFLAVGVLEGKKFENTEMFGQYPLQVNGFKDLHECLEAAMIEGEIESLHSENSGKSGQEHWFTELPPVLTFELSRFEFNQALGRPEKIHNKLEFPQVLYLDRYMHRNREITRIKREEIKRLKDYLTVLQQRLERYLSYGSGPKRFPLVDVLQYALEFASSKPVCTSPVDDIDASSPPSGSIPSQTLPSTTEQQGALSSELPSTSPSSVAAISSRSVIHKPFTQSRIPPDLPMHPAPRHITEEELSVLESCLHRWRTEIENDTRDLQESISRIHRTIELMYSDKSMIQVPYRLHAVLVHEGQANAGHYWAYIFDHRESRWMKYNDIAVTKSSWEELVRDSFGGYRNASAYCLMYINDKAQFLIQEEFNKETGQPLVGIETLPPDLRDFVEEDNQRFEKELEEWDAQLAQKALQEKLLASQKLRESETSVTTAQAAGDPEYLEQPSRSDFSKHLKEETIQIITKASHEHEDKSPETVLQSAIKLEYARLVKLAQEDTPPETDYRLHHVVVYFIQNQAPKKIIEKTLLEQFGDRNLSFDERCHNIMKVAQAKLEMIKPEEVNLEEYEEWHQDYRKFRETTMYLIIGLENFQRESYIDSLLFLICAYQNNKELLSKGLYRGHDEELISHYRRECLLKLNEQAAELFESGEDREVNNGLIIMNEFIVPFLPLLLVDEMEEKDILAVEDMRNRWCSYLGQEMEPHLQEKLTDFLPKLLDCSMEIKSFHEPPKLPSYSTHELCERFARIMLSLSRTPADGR
As to the kind of experiment: Ubiquitin-Rhodamine 110 Assay for USP25 Activity, Example A-2. The format is biochemical. As to conditions: Ub-Rh110 assay, Example A-2; read-out: USP25 A-2 IC50 range. In a few lines:
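USP25-His6 (75 pM) was preincubated with compound (10-point, 3-fold series, 25 μM to 1.3 nM) for 30 min in 20 mM Tris-HCl pH 8.0, 3 mM BME, 0.03% BGG, 0.01% Triton X-100. Ub-Rh110 (25 nM, <<Km) was then added for 45 min at room temperature, citric acid-stopped, and fluorescence read at 485/535 nm.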
What is called IC50 is the concentration at which inhibition is half-maximal. For the compound `Cc1ccc2c(N)c(C(=O)N[C@H]3COc4cc(N5CCN[C@H](C)C5)ccc4C3)sc2n1` [Example 2-9, 3-amino-6-methyl-N-((R)-7-((R)-3-methylpiperazin-1-yl)chroman-3-yl)thieno[2,3-b]pyridine-2-carboxamide], the IC50 lay within 200 to 2000 nM.
In the case of `Cc1ccc2c(N)c(C(=O)N[C@H]3COc4cc(N5CCNCC56COC6)ccc4C3)sc2n1` [Example 2-10] it was 50 to 200 nM; in that of `O=C(N[C@H]1COc2cc(N3CC4CCC(C3)N4)ccc2C1)c1cnc2c(c1)C1(CCN2)CC1` [Example 2-24, N-((3R)-7-(3,8-diazabicyclo[3.2.1]octan-3-yl)chroman-3-yl)-2′,3′-dihydro-1′H-spiro[cyclopropane-1,4′-[1,8]naphthyridine]-6′-carboxamide], 200 to 2000 nM; in that of `Cc1ccc2c(N)c(C(=O)N[C@@H]3COc4cc(N5CCNCC5)c(F)cc4C3)sc2n1` [Example 1-36, (S)-3-amino-N-(6-fluoro-7-(piperazin-1-yl)chroman-3-yl)-6-methylthieno[2,3-b]pyridine-2-carboxamide], more than 2000 nM.
The result for `Cc1cc(C)c2c(N)c(C(=O)N[C@H]3COc4cc(N5CC6CNCC(C5)O6)ccc4C3)sc2n1` [Example 2-20, N-((3R)-7-(9-oxa-3,7-diazabicyclo[3.3.1]nonan-3-yl)chroman-3-yl)-3-amino-4,6-dimethylthieno[2,3-b]pyridine-2-carboxamide] reads 1 to 50 nM; that for `Cc1ccc2c(N)c(C(=O)N[C@H]3COc4cc(N5CC6CC(C5)N6)ccc4C3)sc2n1` [Example 2-2, N-((3R)-7-(3,6-diazabicyclo[3.1.1]heptan-3-yl)chroman-3-yl)-3-amino-6-methylthieno[2,3-b]pyridine-2-carboxamide], 50 to 200 nM.
`Cc1nc2sc(C(=O)N[C@H]3COc4cc(N5CC6CCC(C5)N6)cc(F)c4C3)c(N)c2s1` (single isomer, unassigned) [Example 1-39]: the concentration for half-maximal inhibition (IC50) was in the range of 200 to 2000 nM.
The result for `Cc1cnc2c(N)c(C(=O)N[C@@H]3CCc4cc(N5CCNCC5)c(C)cc4C3)sc2n1` (single isomer, unassigned) [Example 2-35] reads more than 2000 nM; that for `Cc1ccc2c(N)c(C(=O)N[C@@H]3COc4cc(N5CC6CC(C5)N6)ccc4C3)sc2n1` [Example 2-3, N-((3S)-7-(3,6-diazabicyclo[3.1.1]heptan-3-yl)chroman-3-yl)-3-amino-6-methylthieno[2,3-b]pyridine-2-carboxamide], more than 2000 nM; that for `Cc1ccc2c(N)c(C(=O)N[C@H]3COc4cc(N5CCN[C@H](C)[C@H]5C)ccc4C3)sc2n1` (single isomer, unassigned) [Example 1-11], 50 to 200 nM.
As for `Cc1ccc2c(N)c(C(=O)N[C@@H]3COc4cc(N5CCN[C@@H](C)[C@@H]5C)ccc4C3)sc2n1` (single isomer, unassigned) [Example 1-14], the 50% inhibitory concentration (IC50) lay in the range of 200 to 2000 nM.
In the case of `Cc1ccc2c(N)c(C(=O)N[C@H]3COc4cc(N5CC6CNCC(C5)C6(F)F)ccc4C3)sc2n1` [Example 2-1, 3-Amino-N-((3R)-7-(9,9-difluoro-3,7-diazabicyclo[3.3.1]nonan-3-yl)chroman-3-yl)-6-methylthieno[2,3-b]pyridine-2-carboxamide] it was 1 to 50 nM; in that of `Cc1cc(C(F)(F)F)c2c(N)c(C(=O)N[C@H]3COc4cc(N5CC6CNCC(C5)C6(F)F)ccc4C3)sc2n1` [Example 2-22, 3-amino-N-((3R)-7-(9,9-difluoro-3,7-diazabicyclo[3.3.1]nonan-3-yl)chroman-3-yl)-6-methyl-4-(trifluoromethyl)thieno[2,3-b]pyridine-2-carboxamide], 1 to 50 nM; in that of `Cc1cc(C)c2c(N)c(C(=O)N[C@H]3COc4c(C#N)c(N5CCNCC5)cc(F)c4C3)sc2n1` [Example 2-31, (R)-3-amino-N-(8-cyano-5-fluoro-7-(piperazin-1-yl)chroman-3-yl)-4,6-dimethylthieno[2,3-b]pyridine-2-carboxamide], 200 to 2000 nM.
The result for `Cc1ccc2c(N)c(C(=O)N[C@@H]3COc4cc(N5CCNCC5)c(OC(F)(F)F)cc4C3)sc2n1` (single isomer, unassigned) [Example 1-32] reads 200 to 2000 nM; that for `Nc1c(C(=O)N[C@H]2COc3cc(N4CC5CC(C4)N5)ccc3C2)sc2nc(F)ccc12` [Example 2-14, N-((3R)-7-(3,6-diazabicyclo[3.1.1]heptan-3-yl)chroman-3-yl)-3-amino-6-fluorothieno[2,3-b]pyridine-2-carboxamide], 200 to 2000 nM; that for `Cc1cnc2c(N)c(C(=O)N[C@@H]3CCc4c(ccc(N5CCNCC5)c4C)C3)sc2n1` (single isomer, unassigned) [Example 2-37], 200 to 2000 nM.
The result for `[2H]C([2H])([2H])O[C@H]1CN(c2ccc3c(c2)OC[C@H](NC(=O)c2sc4nc(C)ccc4c2N)C3)C[C@@H]1N` [Example 2-38, 3-amino-N-((R)-7-((3S,4S)-3-amino-4-(methoxy-d3)pyrrolidin-1-yl)chroman-3-yl)-6-methylthieno[2,3-b]pyridine-2-carboxamide] reads 200 to 2000 nM.
Take `Cc1nc2sc(C(=O)N[C@@H]3COc4cc(N5CCNCC5)cc(F)c4C3)c(N)c2s1` (single isomer, unassigned) [Example 1-38]: the IC50 is 200 to 2000 nM.
In the case of `Cc1cc(C(F)(F)F)c2c(N)c(C(=O)N[C@H]3COc4cc(N5CC6CC(C5)N6)ccc4C3)sc2n1` [Example 2-21], the half-inhibitory concentration (IC50) was in the range of 50 to 200 nM.
The result for `Cc1cc(C(F)(F)F)c2c(N)c(C(=O)N[C@H]3COc4cc(N5CC6CNCC(C5)O6)ccc4C3)sc2n1` [Example 2-23, N-((3R)-7-(9-oxa-3,7-diazabicyclo[3.3.1]nonan-3-yl)chroman-3-yl)-3-amino-6-methyl-4-(trifluoromethyl)thieno[2,3-b]pyridine-2-carboxamide] reads 1 to 50 nM; that for `Cc1ccc2c(N)c(C(=O)N[C@H]3COc4cc(N5CCNC[C@@H]5C)ccc4C3)sc2n1` [Example 2-4, 3-amino-6-methyl-N-((R)-7-((S)-2-methylpiperazin-1-yl)chroman-3-yl)thieno[2,3-b]pyridine-2-carboxamide], 1 to 50 nM.
